Where two headings read alike, the source gives them in different places.
Columns and labels:
[1] = target: T1, G12D-mutant human KRAS (amino acid residues 1-188) (Homo sapiens, UniProt P01116, G12D); test: KRAS Binding Disruption Assay (AlphaScreen; biotinylated KRpep-2d analogue or RAF1-RBD), G12D; conditions: for IC50: geometric mean, read-out: KRAS GMean IC50 (uM) MUTATION: G12D; for Improved KRAS G12D Biochemical Potency of Compounds with Bridged vs Non-Bridged R^1 Groups: fold more potent than non-bridged version at the R1 variable
T1 construct: G12D or G12C-mutant human KRAS (amino acid residues 1-188) with FLAG tag; made in house; host or cells: E. coli
In short: (§1)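 Mutant KRAS (5-20 nM) incubated 1 h at 25° C with test compound and 5-20 nM biotinylated KRpep-2d analogue or RAF1-RBD in 20 mM HEPES pH 7.5, 100 mM NaCl, 5 mM MgCl2, 0.01% Tween-20, 0.01% BSA.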

[2] = target: T2, G12V-mutant human KRAS (amino acid residues 1-188) (Homo sapiens, UniProt P01116, G12V); test: KRAS Binding Competition Assay (AlphaScreen; biotinylated KRpep-2d analogue), G12V; conditions: geometric mean, read-out: KRAS GMean IC50 (uM) MUTATION: G12V
T2 construct: G12V-mutant human KRAS (amino acid residues 1-188) with FLAG tag was purified from E. coli; made in house; host or cells: E. coli

[3] = target: T3, G12C-mutant human KRAS (amino acid residues 1-188) (Homo sapiens, UniProt P01116, G12C); test: KRAS Binding Disruption Assay (AlphaScreen; biotinylated KRpep-2d analogue or RAF1-RBD), G12C; conditions: geometric mean, read-out: KRAS GMean IC50 (uM) MUTATION: G12C
T3 construct: G12D or G12C-mutant human KRAS (amino acid residues 1-188) with FLAG tag; made in house; host or cells: E. coli
In short: as §1

[4] = Table 3, bridged vs non-bridged R1

| IC50 ([1]; KRAS G12D) [µM] | IC50 [2] [µM] | IC50 [3] [µM] | Compound | Improved KRAS G12D Biochemical Potency of Compounds with Bridged vs Non-Bridged R^1 Groups ([1]; Table 3) | IC50 [1, 4] [µM] |
| --- | --- | --- | --- | --- | --- |
| 0.0001 to 10 | 0.0001 to 10 | 0.0001 to 10 | Oc1cc(-c2ccc3c(N4C[C@H]5CC[C@@H](C4)N5)nc(OCC45CCCN4CCC5)nc3c2)c2ccccc2c1 [P-0002, 4-(4-((1R,5S)-3,8-diazabicyclo[3.2.1]octan-3-yl)-2-((tetrahydro-1H-pyrrolizin-7a(5H)-yl)methoxy)quinazolin-7-yl)naphthalen-2-ol] |  |  |
| 0.0001 to 10 | 10 to 100 | 0.0001 to 10 | Cc1cccc2cccc(-c3ccc4c(N5C[C@H]6CC[C@@H](C5)N6)nc(OCC56CCCN5CCC6)nc4c3F)c12 [P-0005, 4-((1R,5S)-3,8-diazabicyclo[3.2.1]octan-3-yl)-8-fluoro-7-(8-methylnaphthalen-1-yl)-2-((tetrahydro-1H-pyrrolizin-7a(5H)-yl)methoxy)quinazoline] |  |  |
| 0.0001 to 10 | 0.0001 to 10 | 0.0001 to 10 | NCC(=O)N1[C@@H]2CC[C@H]1CN(c1nc(OCC34CCCN3CCC4)nc3cc(-c4cc(O)cc5ccccc45)ccc13)C2 [P-0007, 2-amino-1-((1R,5S)-3-(7-(3-hydroxynaphthalen-1-yl)-2-((tetrahydro-1H-pyrrolizin-7a(5H)-yl)methoxy)quinazolin-4-yl)-3,8-diazabicyclo[3.2.1]octan-8-yl)ethan-1-one] |  |  |
| 0.0001 to 10 | 0.0001 to 10 | 0.0001 to 10 | O=C(CO)N1[C@@H]2CC[C@H]1CN(c1nc(OCC34CCCN3CCC4)nc3cc(-c4cc(O)cc5ccccc45)ccc13)C2 [P-0008, 2-hydroxy-1-((1R,5S)-3-(7-(3-hydroxynaphthalen-1-yl)-2-((tetrahydro-1H-pyrrolizin-7a(5H)-yl)methoxy)quinazolin-4-yl)-3,8-diazabicyclo[3.2.1]octan-8-yl)ethan-1-one] |  |  |
| 0.0001 to 10 | 0.0001 to 10 | 0.0001 to 10 | CN1CCC[C@H]1COc1nc(N2C[C@H]3CC[C@@H](C2)N3)c2cc(F)c(-c3cc(O)cc4ccccc34)c(F)c2n1 [P-0009, 4-(4-((1R,5S)-3,8-diazabicyclo[3.2.1]octan-3-yl)-6,8-difluoro-2-(((S)-1-methylpyrrolidin-2-yl)methoxy)quinazolin-7-yl)naphthalen-2-ol] |  |  |
| 0.0001 to 10 | 0.0001 to 10 | 0.0001 to 10 | Oc1cc(-c2c(F)cc3c(N4C[C@H]5CC[C@@H](C4)N5)nc(OCC45CCCN4CCC5)nc3c2F)c2ccccc2c1 [P-0010, 4-(4-((1R,5S)-3,8-diazabicyclo[3.2.1]octan-3-yl)-6,8-difluoro-2-((tetrahydro-1H-pyrrolizin-7a(5H)-yl)methoxy)quinazolin-7-yl)naphthalen-2-ol] |  |  |
| 0.0001 to 10 | 0.0001 to 10 | 0.0001 to 10 | Cc1c(-c2cc(O)cc3ccccc23)ccc2c(N3C[C@H]4CC[C@@H](C3)N4)nc(OCC34CCCN3CCC4)nc12 [P-0015, 4-(4-((1R,5S)-3,8-diazabicyclo[3.2.1]octan-3-yl)-8-methyl-2-((tetrahydro-1H-pyrrolizin-7a(5H)-yl)methoxy)quinazolin-7-yl)naphthalen-2-ol] |  |  |
| 0.0001 to 10 | 10 to 100 | 10 to 100 | CN1[C@@H]2CC[C@H]1CN(c1nc(OCC34CCCN3CCC4)nc3cc(-c4cc(O)cc5ccccc45)ccc13)C2 [P-0017, 4-(4-((1R,5S)-8-methyl-3,8-diazabicyclo[3.2.1]octan-3-yl)-2-((tetrahydro-1H-pyrrolizin-7a(5H)-yl)methoxy)quinazolin-7-yl)naphthalen-2-ol] |  |  |
| 0.0001 to 10 | 0.0001 to 10 | 0.0001 to 10 | CN1CCC[C@H]1COc1nc(N2C[C@H]3CC[C@@H](C2)N3)c2cc(C#N)c(-c3cc(O)cc4ccccc34)c(F)c2n1 [P-0021, 4-((1R,5S)-3,8-diazabicyclo[3.2.1]octan-3-yl)-8-fluoro-7-(3-hydroxynaphthalen-1-yl)-2-(((S)-1-methylpyrrolidin-2-yl)methoxy)quinazoline-6-carbonitrile] |  |  |
| 0.0001 to 10 | 0.0001 to 10 | 10 to 100 | CN1CCC[C@H]1COc1nc(N2C[C@H]3CC[C@@H](C2)N3)c2cc(C(=O)O)c(-c3cc(O)cc4ccccc34)c(F)c2n1 [P-0024, 4-(3,8-Diazabicyclo[3.2.1]octan-3-yl)-8-fluoro-7-(3-hydroxy-1-naphthyl)-2-[[(2S)-1-methylpyrrolidin-2-yl]methoxy]quinazoline-6-carboxylic acid] |  |  |
| 0.0001 to 10 | 10 to 100 | 10 to 100 | CN1CCC[C@H]1COc1nc(N2CC3CCC2CN3)c2cc(Cl)c(-c3cc(O)cc4ccccc34)c(F)c2n1 (stereo partly drawn) [P-0030, 4-(4-(2,5-diazabicyclo[2.2.2]octan-2-yl)-6-chloro-8-fluoro-2-(((S)-1-methylpyrrolidin-2-yl)methoxy)quinazolin-7-yl)naphthalen-2-ol] |  |  |
| 0.0001 to 10 | 10 to 100 | 10 to 100 | CN1CCC(Oc2nc(N3C[C@H]4CC[C@@H](C3)N4)c3cc(Cl)c(-c4cc(O)cc5ccccc45)c(F)c3n2)CC1 [P-0032, 4-(4-((1R,5S)-3,8-diazabicyclo[3.2.1]octan-3-yl)-6-chloro-8-fluoro-2-((1-methylpiperidin-4-yl)oxy)quinazolin-7-yl)naphthalen-2-ol] |  |  |
| 0.0001 to 10 | 0.0001 to 10 | 0.0001 to 10 | Oc1cc(-c2c(Cl)cc3c(N4C[C@H]5CC[C@@H](C4)N5)nc(OCC45CCCN4CCC5)nc3c2F)c2ccccc2c1 [P-0034, 4-(4-((1R,5S)-3,8-diazabicyclo[3.2.1]octan-3-yl)-6-chloro-8-fluoro-2-((tetrahydro-1H-pyrrolizin-7a(5H)-yl)methoxy)quinazolin-7-yl)naphthalen-2-ol] |  |  |
| 0.0001 to 10 | 0.0001 to 10 | 0.0001 to 10 | CN1CCC[C@H]1COc1nc(N2C[C@H]3CC[C@@H](C2)N3)c2ccc(-c3cc(O)cc4ccccc34)cc2n1 [P-0037, 4-(4-((1R,5S)-3,8-diazabicyclo[3.2.1]octan-3-yl)-2-(((S)-1-methylpyrrolidin-2-yl)methoxy)quinazolin-7-yl)naphthalen-2-ol] |  |  |
| 0.0001 to 10 | 10 to 100 | 10 to 100 | CN1CCC[C@H]1COc1nc(N2CC3CC2CN3)c2cc(Cl)c(-c3cc(O)cc4ccccc34)c(F)c2n1 (stereo partly drawn) [P-0038, 4-(4-(2,5-diazabicyclo[2.2.1]heptan-2-yl)-6-chloro-8-fluoro-2-(((S)-1-methylpyrrolidin-2-yl)methoxy)quinazolin-7-yl)naphthalen-2-ol] |  |  |
| 0.0001 to 10 | 0.0001 to 10 | 0.0001 to 10 | CN1CCC[C@H]1COc1nc(N2C[C@H]3CC[C@@H](C2)N3)c2ccc(-c3cc(O)cc4ccccc34)c(F)c2n1 [P-0044, 4-(4-((1R,5S)-3,8-diazabicyclo[3.2.1]octan-3-yl)-8-fluoro-2-(((S)-1-methylpyrrolidin-2-yl)methoxy)quinazolin-7-yl)naphthalen-2-ol] |  |  |
| 0.0001 to 10 | 0.0001 to 10 | 0.0001 to 10 | Oc1cc(-c2ccc3c(N4C[C@H]5CC[C@@H](C4)N5)nc(OCC45CCCN4CCC5)nc3c2F)c2ccccc2c1 [P-0048, 4-(4-((1R,5S)-3,8-diazabicyclo[3.2.1]octan-3-yl)-8-fluoro-2-((tetrahydro-1H-pyrrolizin-7a(5H)-yl)methoxy)quinazolin-7-yl)naphthalen-2-ol] |  |  |
| 0.0001 to 10 |  | 10 to 100 | Oc1cc(-c2ccc3c(N4C[C@H]5CC[C@@H](C4)N5)nc(OCC4CCCC4)nc3c2F)c2ccccc2c1 [P-0810, 4-(4-((1R,5S)-3,8-diazabicyclo[3.2.1]octan-3-yl)-2-(cyclopentylmethoxy)-8-fluoroquinazolin-7-yl)naphthalen-2-ol] |  |  |
| 0.0001 to 10 |  | 100 to 1000 | OCCCc1nc(N2C[C@H]3CC[C@@H](C2)N3)c2ccc(-c3cc(O)cc4ccccc34)c(F)c2n1 [P-0811, 4-(4-((1R,5S)-3,8-diazabicyclo[3.2.1]octan-3-yl)-8-fluoro-2-(3-hydroxypropyl)quinazolin-7-yl)naphthalen-2-ol] |  |  |
| 0.0001 to 10 |  | 10 to 100 | OC/C=C/c1nc(N2C[C@H]3CC[C@@H](C2)N3)c2ccc(-c3cc(O)cc4ccccc34)c(F)c2n1 [P-0812, 4-(4-((1R,5S)-3,8-diazabicyclo[3.2.1]octan-3-yl)-8-fluoro-2-((E)-3-hydroxyprop-1-en-1-yl)quinazolin-7-yl)naphthalen-2-ol] |  |  |

| Compound | IC50 ([1]; KRAS G12D) [µM] | IC50 [2] [µM] | IC50 [3] [µM] | Improved KRAS G12D Biochemical Potency of Compounds with Bridged vs Non-Bridged R^1 Groups ([1]; Table 3) | IC50 [1, 4] [µM] |
| --- | --- | --- | --- | --- | --- |
| CN1CCC[C@H]1COc1nc(N2C[C@H]3CC[C@@H](C2)N3)c2cc(Cl)c(-c3cc(O)cc4ccccc34)c(F)c2n1 [P-0001, 4-(4-((1R,5S)-3,8-diazabicyclo[3.2.1]octan-3-yl)-6-chloro-8-fluoro-2-(((S)-1-methylpyrrolidin-2-yl)methoxy)quinazolin-7-yl)naphthalen-2-ol] | 0.0001 to 10 | 10 to 100 | 0.0001 to 10 | P-0001 is about 70 times more potent than its non- bridged version at the R^1 variable. | 0.016 |
| CN1CCC[C@H]1COc1nc(N2C[C@H]3CC[C@@H](C2)N3)c2cc(Cl)c(-c3c(O)cccc3F)c(F)c2n1 [P-0027, 2-(4-((1R,5S)-3,8-diazabicyclo[3.2.1]octan-3-yl)-6-chloro-8-fluoro-2-(((S)-1-methylpyrrolidin-2-yl)methoxy)quinazolin-7-yl)-3-fluorophenol] | 0.0001 to 10 | 10 to 100 | 10 to 100 | P-0027 is about 392 times more potent than its non- bridged version at the R^1 variable. | 0.038 |
